What was measured:
mammalian (CHO) cells = conditions: cited from earlier work
[1] = test system: Tn-4h Insect Tissue Culture Cells; assay: Measurement of total cellular sialic acid (colorimetric assay) in Tn-4h insect tissue culture cells; type: cell-based, Trichoplusia ni
Excerpt: Since substrate levels can affect sialylation, it was hypothesized that the microgravity-mediated sialylation might have resulted from an increase in substrate availability. […] This hypothesis was investigated further by comparing the concentration of sialic acid in cells grown in T-flasks and in HARV bioreactors.

Tn-4h cells = assay: Sialylation of baculovirus-expressed SEAP N-linked glycans, normal phase HPLC of 2-AB-labeled glycans; type: cell-based, Trichoplusia ni; conditions: normal gravity
Procedure: Once the SEAP protein is purified, the oligosaccharide moieties are cleaved from the glycoprotein with peptide N-glycosidase F (cleaves oligomannose, hybrid and complex oligosaccharides with or without terminal sialic acid residues). The oligosaccharides are then bonded to a fluorophore marker. The labeled sugar can be digested with various glycosidases that cleave specific linkages. The samples are analyzed by HPLC. Normal phase HPLC fractionations are carried out with a 50 mM ammonium phosphate, pH 4.4, and acetonitrile gradient on a Glyco Sep-N column (OGS, Oxford, UK) by a technique being known in the art, and incorporated by reference (Guile et al., 1996; Mattu et al., 1998). The Glyco Sep-N column is capable of resolving both neutral and charged sugar residues based on hydrophilicity (related to the hydrodynamic volume and molecular size). To obtain accurate glucose equivalency values, the GlycoSep-N is calibrated with a 2-aminobenzamide (2-AB) labeled dextran hydrolysate ladder and glucose homopolymers. The 2-AB fluorescence is detected and quantified using a Waters^a 474 Scanning Fluorescence Detector (Waters Corporation, MA) at λex 330 nm and λcm 420 nm using a 16 μl flow cell.
Since substrate levels can affect sialylation, it was hypothesized that the microgravity-mediated sialylation might have resulted from an increase in substrate availability. […]

CC(=O)N[C@@H]1C(O)O[C@H](CO)[C@@H](O)[C@@H]1O (stereo partly shown) [ManNAc, N-acetylmannosamine]
effect on sialylation (mammalian (CHO) cells): increase sialylation | change of sialic acid level, infected cells ([1]; addition to culture medium, infected Tn-4h cells): not infected cells | change of sialic acid level, uninfected cells ([1]; addition to culture medium, uninfected Tn-4h cells): increased the levels of sialic acid in uninfected cells | nMoles Sialic Acid per mg Cell Protein, Infected ([1]; baculovirus infected Tn-4h cells, T-flask, medium supplemented with 5 mM ManNAc): 98 ± 9 nMoles Sialic Acid per mg Cell Protein | nMoles Sialic Acid per mg Cell Protein, Uninfected ([1]; uninfected Tn-4h cells, T-flask, medium supplemented with 5 mM ManNAc): 62 ± 7 nMoles Sialic Acid per mg Cell Protein | sialylated SEAP glycans identified (Tn-4h cells; 5 mM in medium, stationary T-flasks, Tn-4h cells): five sialylated SEAP glycans were identified | induction of complex, sialylated glycans on a secreted human glycoprotein (Tn-4h cells; culture media supplemented, insect tissue culture cells): induced to produce complex, sialylated glycans
